Results: patent publication US20080292619A1, “Pharmaceutical Composition Containing Meltrin Antagonist” (MOCHIDA PHARMACEUTICAL CO., LTD., priority 2004, published 2008)
In the oligonucleotide strings, read from the 5' end, every base follows the letter of its sugar. An asterisk marks phosphorothioate; unmarked linkages are phosphodiester. Other units and linkages are bracketed, terminal groups are in braces. A string of capitals states the bases alone. d = 2'-deoxy (DNA)

Columns and labels:
[1] = tested on: human preadipocyte; experiment: Adipocyte proliferation and differentiation, neutral fat accumulation (Adipo Red); assay type: cell-based
Procedure: The differentiation medium was prepared by adding supplement kit PGM SingleQuots, #PT-9500, Lot.08101163 (Sanko Junyaku Co., Ltd.) to 100 mL of growth medium. 50 μL of the supernatant was removed from the 96 well plate prepared in Example 12, and 50 μL of the siRNA or the antisense oligonucleotide prepared in the differentiation medium was added, and incubation was conducted in a CO2 incubator for 5 days to 15 days.
The amount of neutral fat accumulated in the adipocyte was determined by fluorometry using Adipo Red stain.
After taking the 96 well plate out of the CO2 incubator, the plate was allowed to stand until it cooled to room temperature. The plate was centrifuged at 300 g (1200 rpm) for 10 minutes at room temperature to remove the medium. Next, the plate was gently washed with 200 μL/well of PBS (Sigma), and 200 μL/well of PBS was added to the well.
Next, 5 μL/well of Adipo Red Assay Reagent (Adipo Red, Cat. #PT-7009, Lot.3F0497, A Cambrex Company) was added, and the plate was allowed to stand at room temperature for at least 10 minutes to thereby stain the neutral fat that had accumulated in the adipocyte. The fluorescence intensity was measured in a fluorometer at an excitation wavelength of 485 nm and an emission wavelength of 535 nm to thereby determine the fat accumulation.
(§1) According to the method of Example 15, M82463 was added to the human preadipocyte incubation system at a concentration of 0.3 to 10 μg/mL so that the final concentration of the DMSO was 0.2%. As a control, a group having only the DMSO added to a final concentration of 0.2% was used.
After preparation of the antibody to the concentration of 0.100 mg/mL with physiological saline, 9 volumes of adipocyte differentiation medium was added to 1 volume of the antibody solution, and the solution was sterilized by filtering through a filter having a diameter of 0.22 μm (MILLEX-GV 0.22 μm Filter unit, 3slgv013SL, Lot. R2NN83622, MILLIPORE). […]

[2] = tested on: adipocyte; experiment: Toxicity for the adipocyte (WST1 assay); assay type: cell-based, human; settings: at the concentration used in the assay (0.3 to 10 μg/mL)
Procedure: Toxicity of the test substance to the adipocyte was examined by WST1 assay. More specifically, Premix WST-1 Cell Proliferation Assay System (Takara Shuzo Co., Ltd.) was added at 10 μL/well, and after incubating at 37° C. for 60 minutes in a CO2 incubator, absorbance (450 nm-650 nm) was measured to examine influence on the adipocyte.
as §1

[3] = target: T1, meltrin α (Homo sapiens, UniProt O43184, E208G/T209S); experiment: Inhibition of protease activity of meltrin α (rhIGF-BP3 cleavage, western blotting); assay type: biochemical; settings: low molecular weight compound 10 μg/mL; rhIGF-BP3 band
T1 construct: had been converted to mature meltrin α having the prodomain deleted (molecular weight 68 kDa); made in house; host or cells: COS-1
T1 sequence (O43184 208-738 isoform O43184-2 E208G/T209S): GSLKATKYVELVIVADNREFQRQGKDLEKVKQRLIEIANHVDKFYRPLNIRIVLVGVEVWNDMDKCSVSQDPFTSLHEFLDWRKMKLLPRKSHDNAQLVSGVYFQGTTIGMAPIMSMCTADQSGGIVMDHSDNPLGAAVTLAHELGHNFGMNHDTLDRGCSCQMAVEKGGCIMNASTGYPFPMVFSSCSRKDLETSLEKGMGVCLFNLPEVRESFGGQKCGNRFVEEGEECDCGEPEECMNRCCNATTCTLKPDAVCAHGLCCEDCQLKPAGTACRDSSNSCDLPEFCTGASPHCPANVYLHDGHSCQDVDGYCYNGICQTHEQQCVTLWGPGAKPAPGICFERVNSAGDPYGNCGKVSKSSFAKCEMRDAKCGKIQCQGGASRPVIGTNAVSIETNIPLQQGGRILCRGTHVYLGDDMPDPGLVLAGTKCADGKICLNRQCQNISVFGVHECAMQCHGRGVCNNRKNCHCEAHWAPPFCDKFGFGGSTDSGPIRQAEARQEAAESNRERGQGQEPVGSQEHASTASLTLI
Procedure: Thrombin (Amersham Biosciences) was added to the purified meltrin α-STFLAG prepared in Example 5, and mixture was kept at 25° C. for 15 hours. When the solution after the reaction was examined by repeating the procedure of Example 5, the human meltrin α containing the prodomain (molecular weight 92 kDa) had been converted to mature meltrin α having the prodomain deleted (molecular weight 68 kDa). For measuring the enzymatic activity of the meltrin α, the solution after the prodomain cleavage with thrombin followed by inactivation of the thrombin by 10 mM APMSF (Wako Pure Chemical Industries, Ltd.) was used. The disappearance of the thrombin activity was confirmed by using the synthetic substrate for the thrombin on the reaction solution. […]
The anti-human meltrin α antibodies produced in Examples 6 and 7 were evaluated on their activity for inhibiting protease activity of meltrin α by using the protease activity assay system of Example 9. […] After the reaction, the reaction solution was electrophoresed by SDS-PAGE, and the rhIGF-BP3 was detected by western blotting.
According to the method of Example 9, activity of the low molecular weight compound for inhibiting protease activity of the meltrin α was assayed as described below. […] After the reaction, the reaction solution was electrophoresed by SDS-PAGE, and the rhIGF-BP3 was detected by western blotting.

[4] = tested on: meltrin α mRNA; experiment: Quantitative determination of human meltrin α expression in human preadipocyte (real time PCR); assay type: cell-based; settings: antisense DNA transfected human preadipocyte; sense oligo DNA group = 100%
Procedure: First, the human preadipocyte for use in the assay (human preadipocytes-sq donor10547, POIETICS #PT-5001, Lot.3F0242, Sanko Junyaku Co., Ltd.) which had been adjusted to a cell concentration of 1×10^5 cells/mL was added to a 96 well culture plate at 1×10^2 to 1×10^4 cells/well/100 μL, and cultured overnight. In the meanwhile, the culture medium in which preadipocytes had been suspended at 1×10^5 cells/mL was added to a 6 well plate at 1600 μL/well, and growth medium was also added to the plate at 400 μL/well, and the cells were cultured overnight. 1 μg to 50 μg of synthetic oligo DNA was added to serum free adipocyte growth medium or serum. free D-MEM, and after adding 3 μL of FuGENE6 per 1 μg of oligo DNA, the mediums were allowed to stand at room temperature for 15 to 45 minutes. From the 6 well plate described above, 400 μL/well of the medium was removed and 400 μL/well of the culture medium containing the oligo DNA was added, and the plate was incubated at 37° C. for 18 hours in the presence of 5% CO2 to evaluate the level of expression of meltrin in Example 15. […]
After removing PBS from the plate, 0.5 mL/well of Trizol Reagent (Invitrogen) was added to the plate. […] After drying, the precipitate was dissolved in water not containing RNase, and absorbance at a wavelength of 260 nm was measured to determine the RNA concentration (1OD=40 μg/mL). […]

Compound | adipocyte proliferation and differentiation ([1]; 0.3 to 10 μg/mL, DMSO 0.2%) | cytotoxicity [2] | activity for inhibiting protease activity of meltrin α [3] | suppression of level of expression of the meltrin α [4] | accumulation of the neutral fat in the preadipocyte ([1]; 5 days after differentiation stimulation, compared to the sense sequence group)
Oc1c(C(Nc2ccccn2)c2ccccc2)ccc2cccnc12 (centres unmarked) [M82463, 7-[phenyl(pyridine-2-ylamino)methyl]quinoline-8-ol] | suppressed the adipocyte proliferation and differentiation in a dose dependent manner | no cytotoxicity was found | suppressed the disappearance of the rhIGF-BP3 |  | 
HS0307A: phosphorothioate antisense sequence CACGGGCAGCGGGCGCGCTGCCAT near the 5′ end of the coding region of human meltrin α (antisense dC*dA*dC*dG*dG*dG*dC*dA*dG*dC*dG*dG*dG*dC*dG*dC*dG*dC*dT*dG*dC*dC*dA*dT) |  |  |  | about 70% | suppressed to a greater degree
